Results taken from patent US9522163B2, “Methods of treating hepatitis” (priority 2002, dated 2016).
Entries after “also recorded” stand apart in the source; their conditions may differ.

Legend:
[1] = tested on: acetaminophen-induced liver injury; experiment: Acetaminophen (APAP)-induced hepatitis model; assay type: in vivo, mice
Method: The animals were exposed to CO at a concentration of 250 ppm. […] Mice were placed in the exposure chamber as required.
To generate the data in FIG. 21, Male C57BL/6J mice were exposed to CO (250 ppm) either 1 hr prior or 4 hr post administration of APAP (500 mg/kg, i.p.). The mice were then maintained in CO for the duration of the experiment. Serum ALT levels were determined 20 hr after APAP administration. Control mice received APAP and were maintained in air. This protocol was designed to allow hepatitis to develop for four hours before administering CO.

[2] = tested on: LPS/D-Gal-induced liver injury; experiment: LPS/D-Gal acute hepatitis model; assay type: in vivo, mice
Method: Results discussed above were confirmed using lipopolysaccharide (LPS, also referred to as endotoxin) in place of TNF. […] In mice pretreated with 250 ppm CO, the increase in ALT was reduced by >75%, to 250+/−75 IU/ml. To further characterize the effects observed with CO in this model, serum interleukin-6 was measured, and found to be reduced 65% in animals breathing CO vs air-breathing controls (data not shown). […] Few changes in the markers of inflammation (edema, hemorrhage, neutrophil infiltration) were observed. Architecture was maintained and appeared grossly similar to untreated and CO (in the absence of LPS/D-Gal)-treated mice. Overall, the use of LPS/D-Gal to induce acute hepatitis paralleled and confirmed data generated using TNF/D-Gal treatment.

iNOS = experiment: Liver iNOS expression (immunoblot, immunostaining); assay type: in vivo, mice
Method: (§1) Western blot analysis was performed on primary hepatocytes in culture or from liver homogenates with antibodies to iNOS (Transduction Laboratories, Lexington, Ky.; 1:1000), HO-1 (Calbiochem; 1:2000), or β-actin (Sigma Chemical; 1:5000). Thirty μg protein in cell culture experiments or 100 μg protein from liver homogenates was loaded per well for SDS-PAGE.
For histology and immunohistochemistry, livers were fixed in 2% paraformaldehyde and then snap frozen in liquid nitrogen. Livers were then sectioned (7 microns thick) and stained with hematoxylin and eosin (H&E). Liver sections were also stained for TUNEL and activated caspase-3 using kits according to the manufacturer's instructions (Promega). Sections for iNOS immunocytochemistry were blocked with 5% goat serum containing 0.2% bovine serum albumin. Thereafter, sections were incubated for 1 hour at room temperature with anti-iNOS antibody (Transduction Laboratories; 1:300), then washed and probed with a secondary antibody conjugated to Alexa-488 (Molecular Probes, Eugene, Oreg.). Nuclei were stained with Hoechst dye. Images were acquired using an Olympus Provus microscope. Hepatocytes in culture were plated on gelatinized coverslips, stimulated as indicated, and then fixed in 2% paraformaldehyde containing 0.1% Triton X-100. […]

HO-1 = experiment: Liver HO-1 expression (immunoblot); assay type: in vivo, mice
Method: as §1
To assess the role of iNOS on TNF-α/D-gal-induced HO-1 expression in the liver (data presented in FIG. 16), mice were administered L-NIL (5 mg/kg, i.p.) 2 hr prior to pre-treatment with CO (250 ppm) and every 2 hr thereafter. Control mice received L-NIL and remained in room air.

[3] = tested on: mouse primary hepatocytes; experiment: TNF-α/ActD-induced cell death, crystal violet viability; assay type: cell-based
Method: Mouse primary hepatocytes were harvested from C57BL/6J, mkk3^−/−, inos^−/− (in-house breeding colony), or hmox-1^−/− mice as described in Kim et al. (J. Biol. Chem. 272: 1402-1411 (1997)). Hepatocytes were used on days 1-3 following harvest.
Cells were treated with TNF-α (10 ng/ml) and actinomycin-D (Act-D; 200 ng/ml, Sigma Chemical Co. St. Louis, Mo.) to induce cell death.
Whether exogenous CO is protective against hepatocyte cell death in vitro was investigated. To generate the data presented in FIG. 2, mouse hepatocytes were pre-incubated with CO (250 ppm) for 1 hr (standard pre-treatment time for all experiments) prior to addition of TNF-α/Act-D (10 ng/200 ng/ml respectively). Cells were maintained in CO for the duration of the experiment. Twelve hours afterward, cell viability was measured as described in Kim et al. (J. Biol. Chem. 272: 1402-1411 (1997)). Adenoviral experiments involved incubating hepatocytes overnight with 10 pfu/cell of the adenovirus prior to addition of TNF-α/ActD, and then assaying for viability using crystal violet. The roles of signaling molecules guanylyl cyclase and p38 MAPK were also investigated in this model. To evaluate the role of cGMP and confirm the role of NF-κB, hepatocytes were treated separately with the soluble guanylate cyclase (sGC) inhibitor 1H-[1,2,4]Oxadiazolo[4,3-a]quinoxalin-1-one (ODQ; Calbiochem; 2-10 μM) or the NF-κB inhibitor BAY 11-7082, (10 μM). Cells were treated with the inhibitors for 1 hour prior to the 1 hour pretreatment with CO. TNF-α/ActD was then added and the cells tested for viability 12 hours later. NF-κB activation was critical to the protection elicited by CO while cGMP was not involved.
To generate the data presented in FIG. 9, mouse hepatocytes were isolated from inos^−/− or from wild type C57BL/6J mice, which were then pre-treated for 1 hr with L-NIO (1 mM) to inhibit iNOS prior to CO administration. Those groups exposed to CO received a one-hour pretreatment prior to addition of TNF-α/ActD and were then returned to CO exposure.
To generate the data presented in FIG. 19, mouse hepatocytes were isolated from HO-1 null mice (hmox-1^−/−) and wild type (C57BL/6J) littermates, pretreated for 1 hour with CO (250 ppm), and treated with TNF-α/ActD. Viability was assayed as described above.
To generate the data presented in FIG. 20, mouse hepatocytes were isolated from HO-1 null mice (hmox-1^−/−) and wild type (C57BL/6J) littermates, pretreated with the NO donor SNAP (500 μM), and then treated with TNF-α/ActD 1 hour later.

[4] = pretreated with 250 ppm CO, 8 hours after LPS/D-Gal

[C-]#[O+] [CO, carbon monoxide]
Protection with CO pre-treatment prior to APAP compared with post-treatment ([1]; CO 250 ppm 1 hr prior to APAP): protection was similar | Serum ALT ([1]; CO 250 ppm from 4 hr post APAP 500 mg/kg i.p., 20 hr after APAP, controls 622±44): 175±137 | Reduction in liver injury ([1]; CO 4 hours after APAP 500 mg/kg i.p.): 62% | Liver histopathology ([2]; CO and LPS/D-Gal): protected to the same extent | Serum interleukin-6 reduced vs air-breathing controls ([2]; animals breathing CO, LPS/D-Gal, data not shown): 65% | Reduction of the increase in serum ALT [2, 4]: > 75% | Serum ALT [2, 4]: 250+/−75 IU/ml | Liver iNOS expression (iNOS; CO 250 ppm 1 hr prior to TNF-α/D-gal, livers six hours later): markedly increased | Liver iNOS expression, CO without TNF-α/D-gal (iNOS; immunostaining): modest increase | Liver HO-1 expression when iNOS was inhibited (HO-1; CO 250 ppm with L-NIL 5 mg/kg i.p. every 2 hr): unable to induce expression | Liver HO-1 expression (HO-1; CO 250 ppm, presence and absence of TNF-α/D-gal): significant increase | TNF-α/ActD-induced cell death, hmox-1−/− hepatocytes ([3]; CO 250 ppm, 1 hour pretreatment): unable to protect | TNF-α/ActD-induced cell death, wild type hepatocytes ([3]; CO 250 ppm, 1 hr pre-incubation and maintained, viability 12 hours): significantly less cell death; also recorded: significantly protected | Cell death in the presence of SB203580 ([3]; SB203580 3-30 μM, data not shown): inhibited cell death | Cell death in hepatocytes from mkk3−/− mice ([3]; data not shown): inhibited cell death | Protection when CO treatment initiated after addition of TNF-α ([3]; data not shown): less protection was observed | Protection against cell death where iNOS expression was absent or inhibited ([3]; inos−/− hepatocytes or wild type with L-NIO 1 mM, 12 hr): did not provide protection
